# Source: patent US20250215071A1, “Novel Mcl-1 inhibitor and combination of Mcl-1 and a BH3 mimetic, such as a Bcl-2 inhibitor” (NETRIS PHARMA, priority 2022, published 2025)
# Residues, ends and D or L forms follow the SMILES beside them. *: point of attachment. Cbz = O=C(OCc1ccccc1)*
# Key:
# Type in all cases: cell-based, Human
# caspase-9 = assay: UNC5B-induced caspase-9 activity in HeLa UNC5B cells; conditions: Dox; 18 hours
# Protocol: FIG. 5. UNC5B-mediated Mcl-1 degradation induces MOMP and caspase-9 activation. (A): UNC5B over-expression triggers Mitochondrial Outer Membrane Permeabilization (MOMP) in a COMMD2/CRL3 complex-dependent manner. Hela cells were transfected with scramble (siCTRL), COMMD2 (siCOMMD2-1) or RBX1 (siRBX1-1) siRNAs. 24 hours after transfection, cells were treated with Dox and after further 18 hours mitochondrial depolarization quantified by 5′,6,6′-tetrachloro-1,1′,3,3′-tetraethylbenzimi-dazolylcarbocyanine iodide (JC-1) dye staining, using NucleoCounter NC3000 (n=3, **** p<0.0001, ordinary two-way ANOVA with Tukey's multiple comparisons test). Values are given as means±SEM. (B,C,D): Apoptotic cell death induced by UNC5B over-expression requires caspase-9. HeLa UNC5B cells were transfected with scramble (siCTRL) or caspase-9 (siCASP9) siRNAs and 24 hours later treated with the indicated concentrations of Dox. Propidium iodide (PI)-positive cells were assessed in real-time up to 48 hours using Incucyte Zoom instrument (C) (n=[…], Kolmogorov-Smirnov test). DNA fragmentation was assessed by FACS analysis (D) and caspase-3 was measured using caspase-3 fluorometric kit (E), both 18 hours after treatment (n=[…], **** p<0.0001, ordinary two-way ANOVA with Šidák's multiple comparisons test). Values are given as means±SEM. […] HeLa UNC5B cells were treated with Dox and 18 hours later caspase-9 and -8 activities were assessed by fluorometric kit, using specific substrates (n=3, ^nsp>0.05, *p<0.05, Mann-Whitney test, one-tailed). […] 24 hours later, cells were treated with Dox and caspase-9 activity was measured by fluorometric kit (n=3, **** p<0.0001, ordinary two-way ANOVA with Tukey's multiple comparisons test). […] 18 hours after treatment, caspase-9 activity was assessed with the fluorometric kit (n=5, *p<0.05, ** p<0.01, *** p<0.001, **** p<0.0001, ordinary two-way ANOVA with Tukey's multiple comparisons test). […] Cells were then treated with Dox and Mcl-1 protein was evaluated by western blot. […]
# caspase-3 = assay: UNC5B-induced caspase-3 activity in HeLa UNC5B cells; conditions: doxycycline 2 μg/mL; 18 hours
# Protocol: Caspase-3 and -9 activity assays were performed as described previously (Paradisi et al., 2013; Paradisi et al., 2009). Briefly, HCT116 and HeLa cells were seeded and treated as for DNA fragmentation assay. Cells were then collected and caspase-3/caspase 9 activity assays were performed using the Caspase-3/Caspase-9 Fluorometric Assay Kit (BioVision, Milpitas, CA, USA), according to the manufacturer's instructions. Caspase activity (activity/min/mg of protein) was calculated from a 1 h kinetic cycle reading on a spectrofluorometer (405 nm/510 nm, Infinite F500, Tecan, Männedorf, Switzerland).
# HeLa UNC5B cells = assay: UNC5B-induced DNA fragmentation in HeLa UNC5B cells; conditions: doxycycline-induced UNC5B; 18 hours
# Protocol: FIG. 2. CRISPR-Cas9 screening identifies genes and molecular pathways involved in UNC5B-induced cell death. Related to FIG. 1. (A): UNC5B induction upon treatment with doxycycline. Stable HCT116 cells, inducible for UNC5B, were treated with the indicated concentrations of doxycycline (Dox). 24 hours later, protein levels of FLAG-UNC5B and GAPDH, used as housekeeping gene, were assessed by western blot. (B): UNC5B induction upon treatment with doxycycline on Hela cells. Stable Hela cells inducible for UNC5B (HeLa UNC5B) were treated with the indicated doses of Dox for 18 hours. Protein levels of His-UNC5B and β-actin, used as housekeeping gene, were measured by western blot. (C,D,E): Induction of UNC5B triggers apoptotic cell death in HCT116 cells. Stable HCTT16 cells inducible for human UNC5B were treated with Dox. To assess cell death, propidium iodide (PI) incorporation was followed in real-time up to 36 hours, using an Incucyte Zoom technology (n=3, ** p<0.01, Kolmogorov Smirnov test) (C). Apoptosis was assessed 18 hours after Dox treatment by DNA fragmentation through flow cytometry ([…] (D) and by caspase-3 activity (E), quantified by fluorometric detection kit (n=3, *p<0.05, ** p<0.01, *** p<0.001, Ordinary two-way ANOVA). Values are given as means±SEM. (F): Caspase inhibition rescues apoptosis triggered by UNC5B. HeLa UNC5B cells were treated with Dox and the pan-caspase inhibitor […] (QVD). 18 hours later, DNA fragmentation was evaluated by flow cytometry (n=3, **** p<0.0001, ordinary two-way ANOVA with Šidák's multiple comparisons test). Values are given as means±SEM. […] The number of guides showing an increase in reads compared to control condition is shown for each gene.
# FIG. 4. […] 18 hours after treatment, apoptosis was measured by DNA fragmentation (A) and caspase-3 activity (B) (n=3-4, **** p<0.0001, ordinary two-way ANOVA with Tukey's multiple comparisons test). […] Protein levels of Mcl-1, Bcl-2 and Bcl-XL, as well as of UNC5B and B-actin, used as housekeeping gene, were evaluated by western blot. […]
# Mcl-1 = Mcl-1 protein levels by western blot in HeLa UNC5B cells; conditions: endogenous Mcl-1; 2 μg/mL Dox; BTZ 1 μM, QVD 10 µM; 16 hours
# Protocol: FIG. 4. UNC5B triggers proteasomal degradation of Mcl-1. (A,B): UNC5B-induced apoptosis requires proteasome activity. Stable Hela cells inducible for UNC5B (HeLa UNC5B) were treated with doxycycline (Dox) at 2 μg/mL, in combination with the indicated doses of the proteasome inhibitors MG132 and bortezomib (BTZ). 18 hours after treatment, apoptosis was measured by DNA fragmentation (A) and caspase-3 activity (B) (n=3-4, **** p<0.0001, ordinary two-way ANOVA with Tukey's multiple comparisons test). Values are given as means±SEM Treatment with proteasome inhibitors was sufficient to strongly reduce apoptosis induction upon UNC5B over-expression. (C): UNC5B triggers Mcl-1 degradation. HeLa UNC5B cells were treated with 2 μg/mL of Dox, in combination with bortezomib (BTZ, 1 μM) and the pan-caspase inhibitor Q-VD-OPh (QVD, 10 µM) inhibitors. 16 hours after treatment, cells were lysed by scraping and sonication in SDS-containing buffer. Protein levels of Mcl-1, Bcl-2 and Bcl-XL, as well as of UNC5B and B-actin, used as housekeeping gene, were evaluated by western blot. […] UNC5B over-expression specifically promoted Mcl-1 protein decrease. […] (D): Mcl-1 degradation induced by UNC5B requires COMMD2/CRL3 complex. HeLa UNC5B cells were transfected with scramble (siCTRL), COMMD2 (siCOMMD2) or RBX1 (siRBX1) siRNAs. […] Protein levels of Mcl-1, UNC5B and Ku80, used as housekeeping protein, were evaluated by western blot. […] Stable HeLa UNC5B cells, constitutively expressing Mcl-1 or empty vector, were treated with doxycycline and apoptosis was evaluated 18 hours later by DNA fragmentation (n=3, ^nsp>0.05, ordinary two-way ANOVA with Sidak's multiple comparisons test). […] Stable HeLa UNC5B cells, constitutively expressing Mcl-1, Bcl-2 or Bcl-XL were treated with Dox and protein levels were evaluated as described in (C). […] 18 hours later, protein levels of Mcl-1, UNC5B and β-actin, used as housekeeping gene, were evaluated by western blot. […] Cells were harvested at the indicated times after CHX treatment, and protein levels were assessed by western blot. […]
Structure (SMILES),UNC5B-induced caspase-9 activation (caspase-9),UNC5B-induced caspase-3 activation (caspase-3),UNC5B-induced apoptosis (DNA fragmentation) (HeLa UNC5B cells),Mcl-1 protein levels / degradation triggered by UNC5B (Mcl-1)
CC(C)C[C@@H](C=O)NC(=O)[C@H](CC(C)C)NC(=O)[C@H](CC(C)C)NC(=O)OCc1ccccc1 [MG132] (Cbz-Leu-Leu-Leu-aldehyde),sufficient to prevent UNC5B-induced caspase-9 activation,suppressed,suppressed,
CC(C)[C@H](NC(=O)c1ccc2ccccc2n1)C(=O)N[C@@H](CC(=O)O)C(=O)COc1c(F)cccc1F [Q-VD-OPh],,,completely prevented apoptosis induction,not sufficient to prevent Mcl-1 degradation
